Experimental data: the supplement of paper PMC4862054

Columns and labels:
Details in all cases: 72 h
[1] = test system: HDQ-P1
Procedure: (§1)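 Drug sensitivity and resistance testing (DSRT) of breast cancer cell lines in 384-well plates, 5 concentrations in 10-fold dilutions over a compound-specific 10,000-fold range. After 72 h, cytotoxicity was read by CellTox Green fluorescence and viability by CellTiter-Glo luminescence (multiplexed), normalised to DMSO and benzethonium chloride controls. EC50 is the inflection point of the fitted dose-response curve (bottom asymptote free, so it can be relative for partial curves) and is censored at the highest tested concentration. Rows with DSS 0 (no meaningful response) were excluded.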

[2] = test system: MDA-MB-453
Procedure: as §1

[3] = test system: CAL-51
Procedure: as §1

[4] = test system: CAL-85-1
Procedure: as §1

[5] = test system: HDQ-P1; remark: listed apart in the source
How it was run: (§2)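 A 20 µl suspension of breast cancer cells was placed in 384-well plates that already contained compound at 5 concentrations in 10-fold steps across a compound-specific 10,000-fold range, and the plates were left for 72 h. CellTox Green fluorescence at 485/520 nm gave cell death, and CellTiter-Glo luminescence, read after 10 min at room temperature, gave viability. Each plate was normalised to 0.1 % DMSO and a positive kill control. EC50 was fitted from the curves and censored at the top concentration.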

[6] = test system: MDA-MB-453; remark: listed apart in the source
How it was run: as §2

[7] = test system: MCF-10A
How it was run: as §2

[8] = test system: SK-BR-3
How it was run: as §2

[9] = test system: CAL-51; remark: listed apart in the source
How it was run: as §2

[10] = test system: CAL-85-1; remark: listed apart in the source
How it was run: as §2

[11] = test system: BT-474
Procedure: as §1

[12] = test system: BT-549
Procedure: as §1

[13] = test system: HCC1937
How it was run: as §2

[14] = test system: HCC1143
How it was run: as §2

[15] = test system: MDA-MB-231
How it was run: as §2

[16] = test system: HCC1599
How it was run: as §2

[17] = test system: BT-474; remark: listed apart in the source
How it was run: as §2

[18] = test system: MDA-MB-436
How it was run: as §2

[19] = test system: MFM-223
How it was run: as §2

[20] = test system: DU-4475
How it was run: as §2

[21] = test system: CAL-148
How it was run: as §2

[22] = test system: MDA-MB-468
How it was run: as §2

[23] = test system: CAL-120
How it was run: as §2

[24] = test system: BT-549; remark: listed apart in the source
How it was run: as §2

[25] = test system: MDA-MB-468; remark: listed apart in the source
Procedure: as §1

[26] = test system: Hs578T
How it was run: as §2

[27] = test system: MDA-MB-453; remark: listed apart in the source
How it was run: (§3)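 For viability, cells received 2.5 µl CellTiter-Blue for 2 h at 37 °C and fluorescence was read at 560/590 nm. Before this, breast cancer cell lines in 20 µl suspension had been incubated for 72 h on 384-well plates pre-loaded with compound dissolved in 5 µl medium. EC50 was obtained from a percent-inhibition dose-response fit censored at the highest concentration, after normalisation of each plate to vehicle and a positive kill control; rows with a zero drug sensitivity score were discarded.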

[28] = test system: DU-4475; remark: listed apart in the source
How it was run: as §3

[29] = test system: CAL-148; remark: listed apart in the source
How it was run: as §3

[30] = test system: CAL-51; remark: listed apart in the source
How it was run: as §3

[31] = test system: HCC1937; remark: listed apart in the source
How it was run: as §3

[32] = test system: MDA-MB-231; remark: listed apart in the source
How it was run: as §3

[33] = test system: HCC1599; remark: listed apart in the source
How it was run: as §3

[34] = test system: BT-474; remark: listed apart in the source
How it was run: as §3

[35] = test system: MDA-MB-436; remark: listed apart in the source
How it was run: as §3

[36] = test system: MDA-MB-468; remark: listed apart in the source
How it was run: as §3

[37] = test system: SK-BR-3; remark: listed apart in the source
How it was run: as §3

[38] = test system: BT-549; remark: listed apart in the source
How it was run: as §3

Compound	EC50, CellTox Green [1]	EC50, CellTox Green [2]	EC50, CellTox Green [3]	EC50, CellTox Green [4]	EC50, CellTiter-Glo [5]	EC50, CellTiter-Glo [6]	EC50, CellTiter-Glo [7]	EC50, CellTiter-Glo [8]	EC50, CellTiter-Glo [9]	EC50, CellTiter-Glo [10]	EC50, CellTox Green [11]	EC50, CellTox Green [12]	EC50, CellTiter-Glo [13]	EC50, CellTiter-Glo [14]	EC50, CellTiter-Glo [15]	EC50, CellTiter-Glo [16]	EC50, CellTiter-Glo [17]	EC50, CellTiter-Glo [18]	EC50, CellTiter-Glo [19]	EC50, CellTiter-Glo [20]	EC50, CellTiter-Glo [21]	EC50, CellTiter-Glo [22]	EC50, CellTiter-Glo [23]	EC50, CellTiter-Glo [24]	EC50, CellTox Green [25]	EC50, CellTiter-Glo [26]	EC50, CellTiter-Blue viability [27]	EC50, CellTiter-Blue viability [28]	EC50, CellTiter-Blue viability [29]	EC50, CellTiter-Blue viability [30]	EC50, CellTiter-Blue viability [31]	EC50, CellTiter-Blue viability [32]	EC50, CellTiter-Blue viability [33]	EC50, CellTiter-Blue viability [34]	EC50, CellTiter-Blue viability [35]	EC50, CellTiter-Blue viability [36]	EC50, CellTiter-Blue viability [37]	EC50, CellTiter-Blue viability [38]
C=CC(=O)N1CCC[C@@H](n2nc(-c3ccc(Oc4ccccc4)cc3)c3c(N)ncnc32)C1 [Ibrutinib]	> 1000 nM	943 nM	> 1000 nM	416 nM	0.168 µM	10.5 nM	198 nM	11.9 nM	415 nM	493 nM																												
C=CCc1cccc(/C=N/NC(=O)CN2CCN(Cc3ccccc3)CC2)c1O [PAC-1]			413 nM		4.98 µM	2610 nM		5200 nM	1620 nM	5250 nM	3.52 µM	1190 nM	5.3 µM	6.7 µM	3.1 µM	7.69 µM	3.91 µM	3.48 µM	8.68 µM	4.35 µM	6.67 µM	4580 nM	3.79 µM	1230 nM														
Nc1ncn([C@H]2C[C@H](O)[C@@H](CO)O2)c(=O)n1 [Decitabine]		> 10000 nM	28.9 nM		> 10 µM				1160 nM				3.5 µM				> 10 µM					65.2 nM		604 nM	> 10 µM	> 10 µM	6.49 µM	6.76 µM	6.6 µM	2380 nM	737 nM	96 nM	> 10 µM	1970 nM	90.1 nM	40.4 nM	3.47 µM	1800 nM
